Test results published in patent publication US9877921B2 (NOVA SOUTHEASTERN UNIVERSITY, priority 2011, dated 2018).

Test: Discoloration (degradation) after nanoparticle processing by microfluidization
Format: physicochemical
Conditions: after high energy fluidization
Procedure: Nanoparticles were fabricated from epinephrine base or epinephrine bitartrate (Bit) using high energy fluidization (microfluidization) techniques. […] Particles sizes were measured before and after size reduction using a Mastersizer (Malvern) and/or a NiComp 370 Submicron Particle Sizer (NiComp). The particles were lyophilized (freeze-dried) using a bench top lyophilizer (ART Inc.).
The main problem was discoloration (a brown color formed) due to degradation.

- Sample Color after Processing (discoloration indicating instability): did not show any discoloration
Compound: CNC[C@H](O)c1ccc(O)c(O)c1 [Epinephrine Bit, epinephrine bitartrate]
